Structures are written as SMILES. Where a name gives a salt, the structure may show the parent alone.

As for `O=C(Nc1cn2cc(-n3ccnc3)ccc2n1)c1ccc(-c2ncc[nH]2)cc1` [Example 88, 4-(1H-imidazol-2-yl)-N-[6-(1H-imidazol-1-yl)imidazo[1,2-a]pyridin-2-yl]benzamide], the melting point is 276 to 279 °C (dec.).

Consider `CC(C)(CN)c1ccc(C(=O)Nc2cn3cc(Cl)ccc3n2)cc1` [Example 94, 4-(2-amino-1,1-dimethylethyl)-N-(6-chloroimidazo[1,2-a]pyridin-2-yl)benzamide], for which the melting point was in the range of 245 to 247 °C.

`CC(C)(C(=O)O)c1ccc(C(=O)Nc2cn3cc(-c4ccsc4)ccc3n2)cc1` [Example 25, 2-methyl-2-(4-{[6-(3-thienyl)imidazo[1,2-a]pyridin-2-yl]carbamoyl}phenyl)propanoic acid] registered a melting point of 304 to 306 °C.

`CC(C)(CO)c1ccc(C(=O)Nc2cn3cc(C(F)(F)F)ccc3n2)cc1` [Example 461, 4-(2-hydroxy-1,1-dimethylethyl)-N-[6-(trifluoromethyl)imidazo[1,2-a]pyridin-2-yl]benzamide] gave a melting point of 227 to 229 °C.

In turn, `CC(C)(CCO)c1ccc(C(=O)Nc2cn3cc(-n4ccnc4)ccc3n2)cc1` [Example 468, 4-(3-hydroxy-1,1-dimethylpropyl)-N-[6-(1H-imidazol-1-yl)imidazo[1,2-a]pyridin-2-yl]benzamide] gave a melting point of 225 to 227 °C.

Consider `CCCNc1ccc2nc(NC(=O)c3ccc(C(C)(C)C)cc3)cn2n1` [Example 167, 4-tert-butyl-N-[6-(propylamino)imidazo[1,2-b]pyridazin-2-yl]benzamide], for which the melting point was in the range of 243 to 244 °C.

In turn, `CC(C)(C(=O)O)c1ccc(C(=O)Nc2cn3cc(-c4cn[nH]c4)ccc3n2)cc1` [Example 29, 2-methyl-2-(4-{[6-(1H-pyrazol-4-yl)imidazo[1,2-a]pyridin-2-yl]carbamoyl}phenyl)propanoic acid] displayed a melting point of 306 to 307 °C.

Take `CC(C)(C)c1ccc(C(=O)Nc2cn3cc(-c4cnco4)ccc3n2)cc1` [Example 74, 4-tert-butyl-N-[6-(1,3-oxazol-5-yl)imidazo[1,2-a]pyridazin-2-yl]benzamide]: the melting point is 265 to 266 °C.

Compound `CC(C)(CCc1noc(=O)[nH]1)c1ccc(C(=O)Nc2cn3cc(-n4ccnc4)ccc3n2)cc1` [Example 437, 4-[1,1-dimethyl-3-(5-oxo-4,5-dihydro-1,2,4-oxadiazol-3-yl)propyl]-N-[6-(1H-imidazol-1-yl)imidazo[1,2-a]pyridin-2-yl]benzamide] registered a melting point of 283 to 284 °C.

Take `CC(C)(c1ccc(C(=O)Nc2cn3cc(Cl)ccc3n2)cc1)c1nnn[nH]1` [Example 39, N-(6-chloroimidazo[1,2-a]pyridin-2-yl)-4-[1-methyl-1-(1H-tetrazol-5-yl)ethyl]benzamide]: the melting point lay in the range of 266 to 267 °C.

With `CC(C)(C)c1ccc(C(=O)Nc2cn3nc(N)ccc3n2)cc1` [Example 148, N-(6-aminoimidazo[1,2-b]pyridazin-2-yl)-4-tert-butylbenzamide], the melting point fell in the range of 267 to 268 °C.

With `CC(C)(C)c1ccc(C(=O)Nc2cn3nc(NCCc4cccnc4)ccc3n2)cc1` [Example 163, 4-tert-butyl-N-{6-[(2-pyridin-3-ylethyl)amino]imidazo[1,2-b]pyridazin-2-yl}benzamide], the melting point worked out at 231 °C.

Turning to `Cn1cc(-c2ccc3nc(NC(=O)c4ccc(C(C)(C)C)nc4)cn3n2)cn1` [Example 176, 6-tert-butyl-N-[6-(1-methyl-1H-pyrazol-4-yl)imidazo[1,2-b]pyridazin-2-yl]nicotinamide], the melting point fell in the range of 251 to 252 °C.

With `CC(C)(CNC(=O)c1ncc[nH]1)c1ccc(C(=O)Nc2cn3cc(C(F)(F)F)ccc3n2)cc1` [Example 457, N-[2-methyl-2-(4-{[6-(trifluoromethyl)imidazo[1,2-a]pyridin-2-yl]carbamoyl}phenyl)propyl]-1H-imidazole-2-carboxamide], the melting point was 292 to 293 °C.

The compound `CN(C)c1ccc2nc(NC(=O)c3ccc(C(C)(C)C)cc3)cn2n1.Cl` showed a melting point of 259 to 260 °C.

`CC(C)(C(=O)NCC#N)c1ccc(C(=O)Nc2cn3cc(Cl)ccc3n2)cc1` [Example 34, N-(6-chloroimidazo[1,2-a]pyridin-2-yl)-4-{2-[(cyanomethyl)amino]-cyano-1,1-dimethyl-2-oxoethyl}benzamide] had a melting point of 268 to 269 °C.

`CC(C)(C)c1ccc(C(=O)Nc2cn3c4c(ccc3n2)OCC4)cn1` (as salt: hydrochloride) [Example 18, 6-tert-butyl-N-(1,2-dihydrofuro[2,3-e]imidazo[1,2-a]pyridin-7-yl)nicotinamide dihydrochloride] had a melting point of 199 to 200 °C.

Regarding `CC(C)(C)c1ccc(C(=O)Nc2cn3cc(-n4ccnc4)ccc3n2)cn1` [Example 86, 6-tert-butyl-N-[6-(1H-imidazol-1-yl)imidazo[1,2-a]pyridin-2-yl]nicotinamide], the melting point was 242 to 245 °C.

As for `O=C(Nc1cn2cc(-n3ccnc3)ccc2n1)c1ccc(-c2ccoc2)cc1` [Example 89, 4-(3-furyl)-N-[6-(1H-imidazol-1-yl)imidazo[1,2-a]pyridin-2-yl]benzamide], the melting point fell in the range of 261 to 263 °C.

The compound `CC(C)(CCc1nnn[nH]1)c1ccc(C(=O)Nc2cn3cc(Cl)ccc3n2)cc1` [Example 36, N-(6-chloroimidazo[1,2-a]pyridin-2-yl)-4-[1,1-dimethyl-3-(1H-tetrazol-5-yl)propyl]benzamide] returned a melting point of 250 to 251 °C.

As for `CC(C)(C)c1ccc(C(=O)Nc2cn3cc(C#N)ccc3n2)cc1` [Example 78, 4-tert-butyl-N-[6-cyanoimidazo[1,2-a]pyridin-2-yl]benzamide], the melting point is 300 to 301 °C.

`CN1CCC(Nc2ccc3nc(NC(=O)c4ccc(C(C)(C)C)cc4)cn3n2)CC1` [Example 168, 4-tert-butyl-N-{6-[(1-methylpiperidin-4-yl)amino]imidazo[1,2-b]pyridazin-2-yl}benzamide] gave a melting point of 275 to 277 °C.

The compound `CC(C)(C)c1ccc(C(=O)Nc2cn3c4c(ccc3n2)OCC4)cc1` [Example 14, 4-tert-butyl-N-(1,2-dihydrofuro[2,3-e]imidazo[1,2-a]pyridin-7-yl)benzamide] yielded a melting point of 266 to 268 °C.

As to `COc1ccc(-c2ccc3nc(NC(=O)c4ccc(C(C)(C)C)cc4)cn3c2)cn1` [Example 106, 4-tert-butyl-N-[6-(6-methoxypyridin-3-yl)imidazo[1,2-a]pyridin-2-yl]benzamide], the melting point is 245 to 247 °C.

In the case of `Cn1cc(-c2ccc3nc(NC(=O)c4ccc(C(C)(C)CO)cc4)cn3c2)cn1` [Example 462, 4-(2-hydroxy-1,1-dimethylethyl)-N-[6-(1-methyl-1H-pyrazol-4-yl)imidazo[1,2-a]pyridin-2-yl]benzamide], the melting point was in the range of 275 to 277 °C.

`CC(C)(C)c1ccc(C(=O)Nc2cn3nc(NC4CC4)ccc3n2)cc1` [Example 166, 4-tert-butyl-N-[6-(cyclopropylamino)imidazo[1,2-b]pyridazin-2-yl]benzamide]: the melting point lay within 274 to 275 °C.

For the compound `CC(C)(C)c1ccc(C(=O)Nc2cn3cc(-c4ncc[nH]4)ccc3n2)cc1` [Example 73, 4-tert-butyl-N-[6-(1H-imidazol-2-yl)imidazo[1,2-a]pyridin-2-yl]benzamide], the melting point fell in the range of 300 to 301 °C.

In general, melting point refers to the temperature, or range, at which the solid turns liquid.

The values above are taken from US20100029619A1, “FUSED HETEROCYCLIC COMPOUND” (TAKEDA PHARMACEUTICAL COMPANY LIMTED, priority 2006, published 2010).
